Results on 19 compounds are retold here after patent US8796280B2, “2,3-disubstituted pyrazinesulfonamides as CRTH2 inhibitors” (Merck Serono, S.A., priority 2005, dated 2014).

For assay [1], the target named is T1, CRTH2 (Homo sapiens (Human), UniProt Q9Y5Y4). Briefly: Radioligand binding assay ([3H]PGD2 displacement, hCRTH2 HEK293 (EBNA) cell membranes). Conditions: 1.5 nM [3H]PGD2, 10 μg hCRTH2 HEK293 (EBNA) membrane protein, 60 min room temperature; test concentration not given. From the text:
Human CRTH2 cDNA was amplified by PCR using a human urinary bladder cDNA library as a template and specific primers containing HindIII and BamHI restriction sites for cloning into the pCEP4 vector (Invitrogen). The vector construction is described in detail in Sawyer et al., Br. J. Pharmocol 2002, 137, 1163-72. The nucleotide sequence of the cloned cDNA was identical the previously reported hCRTH2 sequence (Nagata et al, 1999, J. Immunol. 162, 1278-1286).
HEK293 (EBNA) cells were transfected with the pCEP4-hCRTH2 construct using the calcium phosphate technique. Cells were maintained in culture at 37° C. in an atmosphere of 5% CO2 in Dulbecco's modified Eagle's F12 medium (Invitrogen), containing 10% heat-inactivated foetal calf serum (TerraCell International, Canada), 2 mM Glutamine, 100 units/ml of penicillin and 100 μg/ml streptomycin (Invitrogen). 48 hours after the transfection, cells were grown in presence of 300 μg/ml of Hygromycin B (Invitrogen) for 4 weeks and antibiotic resistant cells were amplified for cell membrane preparation.
Adherent HEK293 (EBNA) cells expressing hCRTH2 were cultured in 225 cm^2 cell culture flasks (Corning, USA) in 30 ml of medium. After two rinses of phosphate buffered saline (PBS), cells were harvested in 10 ml of PBS containing 1 mM EDTA, centrifuged at 500×g for 5 min at 4° C. and frozen at −80° C. The pellet was re-suspended in 50 mM Tris-HCl, pH 7.4, 2 mM EDTA, 250 mM Sucrose, containing protease inhibitor cocktail tablets, (Complete EDTA-free, Roche, Germany) and incubated 30 min at 4° C. Cells were disrupted by nitrogen cavitation (Parr Instruments, USA) at 4° C. (800 p.s.i. for 30 min), and centrifuged at 500×g for 10 min at 4° C. Pellet containing nuclei and cellular debris was discarded and supernatant was centrifuged 60 min at 4° C. at 45000×g. Membrane pellet was re-suspended in storage buffer (10 mM HEPES/KOH pH 7.4, 1 mM EDTA, 250 mM sucrose, protease inhibitor cocktail tablets) using Dounce homogenization and frozen in liquid nitrogen, and stored at −80° C.
(§1) The inhibitory activity can be investigated by a radioligand binding assay (Sawyer et al., Br. J. Pharmocol 2002, 137, 1163-72). The radioligand binding assay was performed at room temperature in binding buffer (10 mM HEPES/KOH pH […], with protease inhibitor cocktail tablets), containing 1.5 nM [^3H]PGD2 (Amersham, 156 Cie/mmol), and 10 μg of hCRTH2 HEK293 (EBNA) cell membrane protein in a final volume of 100 μl in 96 well plates (Corning, USA). Non-specific binding was determined in the presence of 1 μM PGD2 (Cayman, USA). Competing pyrazine sulfonamides were diluted in dimethylsulphoxide so that the total volume of dimethylsulfoxide was kept constant at 1% dimethylsulphoxide (Me2SO). 10 μl of the pyrazine sulfonamides were added. Incubation (60 min at room temperature) was terminated by rapid filtration through 96 wells hydrophobic GF/C Unifilter plates (Whatman, USA). Filters were washed twice with 250 μl of Tris-HCl pH 7.4, 10 mM MnCl2, and residual radioligand bound to the filters was mixed to 100 μl of liquid scintillation cocktail (Optiphase Supermix, Perkin Elmer, USA) and binding activity was determined by counting residual radioligand using a 1450 Micro-beta scintillation counter (Wallac, UK).

The target of assay [2] is T1, CRTH2. Nature of the assay: Determination of Ki, equilibrium competition binding against [3H]PGD2. Conditions: competition against [3H]PGD2; average of at least three independent dose response experiments; Ki calculated from IC50. The procedure:
as §1
Ki values were determined by equilibrium competition binding experiments against [^3H]PGD2. Ki values were calculated from the formula below and represent the average of at least three independent dose response experiments. The Ki values give the ligand concentrations necessary to inhibit 50% of the binding of 3[H]PGD2 to CRTH2. Ki=IC50/(1+[Concentration of Ligand]/Kd)]
All experiments were performed in 96 well plates, in a final volume of 100 μl according to the above described filtration assay. The concentration of membranes and 3[H]PGD2, as well as the positive and negative controls were identical to the conditions described above.

T1 sequence (Q9Y5Y4 whole entry): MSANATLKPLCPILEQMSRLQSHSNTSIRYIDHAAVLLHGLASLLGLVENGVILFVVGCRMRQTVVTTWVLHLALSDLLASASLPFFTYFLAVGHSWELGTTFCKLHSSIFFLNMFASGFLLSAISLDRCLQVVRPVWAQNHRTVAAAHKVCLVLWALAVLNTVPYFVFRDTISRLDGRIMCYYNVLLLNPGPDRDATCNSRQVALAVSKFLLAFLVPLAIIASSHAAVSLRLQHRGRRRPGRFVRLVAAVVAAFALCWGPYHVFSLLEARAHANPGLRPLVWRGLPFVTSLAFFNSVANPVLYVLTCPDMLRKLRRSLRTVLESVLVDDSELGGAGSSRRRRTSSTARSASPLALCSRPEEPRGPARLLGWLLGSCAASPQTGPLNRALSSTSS

Regarding `CN(Cc1ccc(-c2nccnc2NS(=O)(=O)c2ccccc2Cl)cc1)c1ccccc1` [Compound 4, 2-chloro-N-[3-(4-{[methyl(phenyl)amino]methyl}phenyl)pyrazin-2-yl]-benzenesulfonamide], the “Inhibition hCRTH2 [%]” value on CRTH2 [1] was found to be 84.5%. At CRTH2 [2], the Ki – broadly, the dissociation constant of the complex between target and ligand, obtained from inhibition or displacement – is 1.57 µM. The like results for `O=S(=O)(Nc1nccnc1-c1ccc(COc2ccc3ccccc3c2)cc1)c1ccccc1Cl` [Compound 5, 2-chloro-N-(3-{4-[(2-naphthyloxy)methyl]phenyl}pyrazin-2-yl)benzene-sulfonamide] were, in that order, 82.0% and 2.32 µM. The like results for `O=S(=O)(Nc1nccnc1-c1ccc(Cn2ccc3ccccc32)cc1)c1ccccc1Cl` [Compound 6, 2-chloro-N-{3-[4-(1H-indol-1-ylmethyl)phenyl]pyrazin-2-yl}benzene-sulfonamide] were, in that order, 81.5% and 2.12 µM. For the compound `O=S(=O)(Nc1nccnc1-c1ccc(COc2ccc3c(c2)CCCC3)cc1)c1ccccc1Cl` [Compound 7, 2-chloro-N-(3-{4-[(5,6,7,8-tetrahydronaphthalen-2-yloxy)methyl]-phenyl}-pyrazin-2-yl)benzenesulfonamide], the “Inhibition hCRTH2 [%]” value on CRTH2 [1] came to 80.0%. At CRTH2 [2], the inhibition constant (Ki) was 2.59 µM.

Consider `CCc1nc2ccccc2n1Cc1ccc(-c2nccnc2NS(=O)(=O)c2ccccc2Cl)cc1` [Compound 8, 2-chloro-N-(3-{4-[(2-ethyl-1H-benzimidazol-1-yl)methyl]phenyl}pyrazin-2-yl)benzenesulfonamide], for which the “Inhibition hCRTH2 [%]” value on CRTH2 [1] was determined as 79.0%. Besides, the Ki on CRTH2 [2] is 1.42 µM. Consider `O=S(=O)(Nc1nccnc1-c1ccc(CNc2ccc3c(c2)OCO3)cc1)c1ccccc1C(F)(F)F` [Compound 9, N-(3-{4-[(1,3-benzodioxol-5-ylamino)methyl]phenyl}pyrazin-2-yl)-2-(trifluoromethyl)benzenesulfonamide], for which the “Inhibition hCRTH2 [%]” value on CRTH2 [1] is reported as 72.5%. In addition, on CRTH2 [2], the Ki is 2.98 µM. The like results for `COc1cccc(COCc2ccc(-c3nccnc3NS(=O)(=O)c3ccccc3C(F)(F)F)cc2)c1` [Compound 10, N-[3-(4-{[(3-methoxybenzyl)oxy]methyl}phenyl)pyrazin-2-yl]-2-(trifluoromethyl)benzenesulfonamide] were, in that order, 72.0% and 1.4 µM. Regarding `CN(Cc1ccc(-c2nccnc2NS(=O)(=O)c2cccc(Cl)c2)cc1)c1ccc(OC(F)(F)F)cc1` [Compound 11, 3-chloro-N-{3-[4-({methyl[4-(trifluoromethoxy)phenyl]amino}methyl)phenyl]pyrazin-2-yl}benzenesulfonamide], the “Inhibition hCRTH2 [%]” value at CRTH2 [1] is 65.0%. For the same compound, the Ki on CRTH2 [2] was 5.16 µM. On to `CN(Cc1ccc(-c2nccnc2NS(=O)(=O)c2cccs2)cc1)c1ccc(Cl)cc1` [Compound 12, N-[3-(4-{[(4-chlorophenyl)(methyl)amino]methyl}phenyl)pyrazin-2-yl]-thiophene-2-sulfonamide], for which the “Inhibition hCRTH2 [%]” value on CRTH2 [1] was found to be 65.0%. For the same compound, the inhibitory constant (Ki) on CRTH2 [2] was 8.43 µM. The like results for `O=S(=O)(Nc1nccnc1N1CCN(Cc2ccc3ccccc3n2)CC1)c1ccc(Oc2ccccc2)cc1` [Compound 13, 4-phenoxy-N-{3-[4-(quinolin-2-ylmethyl)piperazin-1-yl]pyrazin-2-yl}-benzenesulfonamide] were, in that order, 64.5% and 4.03 µM. Regarding `Cc1ccc(S(=O)(=O)Nc2nccnc2-c2ccc(CN(C)c3ccc(OC(F)(F)F)cc3)cc2)cc1` [Compound 14, 4-methyl-N-{3-[4-({methyl[4-(trifluoromethoxy)phenyl]amino}-methyl)phenyl]pyrazin-2-yl}benzenesulfonamide], the “Inhibition hCRTH2 [%]” value at CRTH2 [1] stood at 53.0%. For the same compound, the Ki on CRTH2 [2] is 5.85 µM. The like results for `CN(Cc1ccc(-c2nccnc2NS(=O)(=O)c2ccc(Cl)cc2)cc1)c1ccccc1` [Compound 15, 4-chloro-N-[3-(4-{[methyl(phenyl)amino]methyl}phenyl)pyrazin-2-yl]-benzenesulfonamide] were, in that order, 51.0% and 5.38 µM. In the case of `CN(Cc1ccc(-c2nccnc2NS(=O)(=O)c2ccc(C#N)cc2)cc1)c1ccc(OC(F)(F)F)cc1` [Compound 16, 4-cyano-N-{3-[4-({methyl[4-(trifluoromethoxy)phenyl]amino}-methyl)phenyl]pyrazin-2-yl}benzenesulfonamide], the “Inhibition hCRTH2 [%]” value at CRTH2 [1] stood at 47.0%. The Ki on CRTH2 [2] is 5.71 µM. `CN(Cc1ccc(-c2nccnc2NS(=O)(=O)c2ccccc2C(F)(F)F)cc1)c1ccc(F)cc1` [Compound 17, N-[3-(4-{[(4-Fluoro-phenyl)-methyl-amino]-methyl}-phenyl)-pyrazin-2-yl]-2-trifluoromethyl-benzenesulfonamide]: the Ki at CRTH2 [2] is 0.38 µM. Regarding `CN(Cc1ccc(-c2nccnc2NS(=O)(=O)c2ccccc2C(F)(F)F)cc1)c1ccccc1` [Compound 18, N-(3-{4-[(Methyl-phenyl-amino)-methyl]-phenyl}-pyrazin-2-yl)-2-trifluoromethyl-benzenesulfonamide], on CRTH2 [2], the Ki is 0.4 µM.

As to `O=S(=O)(Nc1nccnc1-c1ccc(Cn2ccc3cc(F)ccc32)cc1)c1ccccc1Cl` [Compound 41, 2-Chloro-N-{3-[4-(5-fluoro-indol-1-ylmethyl)-phenyl]-pyrazin-2-yl}-benzenesulfonamide], the inhibition constant (Ki) at CRTH2 [2] was 3.9 µM. The same measure, in the same setting: next, `CN(Cc1ccc(-c2nccnc2NS(=O)(=O)c2ccccc2Cl)cc1)c1ccccc1F` [Compound 42, 2-Chloro-N-[3-(4-{[(2-fluoro-phenyl)-methyl-amino]-methyl}-phenyl)-pyrazin-2-yl]-benzenesulfonamide]: 3.9 µM. The same measure, in the same setting: next, `Cc1cc2ccccc2n1Cc1ccc(-c2nccnc2NS(=O)(=O)c2ccccc2Cl)cc1` [Compound 43, 2-Chloro-N-{3-[4-(2-methyl-indol-1-ylmethyl)-phenyl]-pyrazin-2-yl}-benzenesulfonamide]: 4.11 µM; `CCN(Cc1ccc(-c2nccnc2NS(=O)(=O)c2ccccc2Cl)cc1)c1ccccn1` [Compound 45, 2-Chloro-N-(3-{4-[(ethyl-pyridin-2-yl-amino)-methyl]-phenyl}-pyrazin-2-yl)-benzenesulfonamide]: 4.51 µM.
